Test results: the NIST ThermoML archive (doi:10.1021/acs.jced.6b00181)

Assay: xn = mol fraction of the nth substance listed
Conditions: Liquid, Other PVT measurement

C=CC [propene] + CCCCCC
Conditions	mass density [kg/m3]
325.5 K, 6800 kPa, x1 = 0.8985	488.5
325.5 K, 10700 kPa, x1 = 0.8985	500.7
325.5 K, 13800 kPa, x1 = 0.8985	508.3
325.5 K, 16100 kPa, x1 = 0.8985	513.5
325.5 K, 20900 kPa, x1 = 0.8985	523.6
325.5 K, 27600 kPa, x1 = 0.8985	535.1
325.5 K, 34300 kPa, x1 = 0.8985	544.8
325.5 K, 41300 kPa, x1 = 0.8985	554.1
325.5 K, 48200 kPa, x1 = 0.8985	561.7
325.5 K, 51600 kPa, x1 = 0.8985	566.7
325.5 K, 55000 kPa, x1 = 0.8985	569.5
325.5 K, 58400 kPa, x1 = 0.8985	574.2
325.5 K, 61800 kPa, x1 = 0.8985	576.8
325.5 K, 64200 kPa, x1 = 0.8985	580.1
325.5 K, 67100 kPa, x1 = 0.8985	582.4
370.2 K, 5200 kPa, x1 = 0.9003	385.2
370.2 K, 5900 kPa, x1 = 0.9003	392.1
370.2 K, 7300 kPa, x1 = 0.9003	406
370.2 K, 10700 kPa, x1 = 0.9003	429.7
370.2 K, 14200 kPa, x1 = 0.9003	447.3
370.2 K, 17300 kPa, x1 = 0.9003	459.2
370.2 K, 20800 kPa, x1 = 0.9003	469.1
370.2 K, 24100 kPa, x1 = 0.9003	478.3
370.2 K, 31300 kPa, x1 = 0.9003	495.2
370.2 K, 38000 kPa, x1 = 0.9003	508.5
370.2 K, 44600 kPa, x1 = 0.9003	519.7
370.2 K, 46900 kPa, x1 = 0.9003	523.6
370.2 K, 48000 kPa, x1 = 0.9003	523.6
370.2 K, 50600 kPa, x1 = 0.9003	529.1
370.2 K, 51400 kPa, x1 = 0.9003	529.1
370.2 K, 57800 kPa, x1 = 0.9003	538.5
370.2 K, 61800 kPa, x1 = 0.9003	544.3
370.2 K, 67100 kPa, x1 = 0.9003	550.3
374.1 K, 2800 kPa, x1 = 0.606	465.7
374.1 K, 2900 kPa, x1 = 0.606	467
374.1 K, 3800 kPa, x1 = 0.606	471.2
374.1 K, 5500 kPa, x1 = 0.606	479
374.1 K, 7300 kPa, x1 = 0.606	486.2
374.1 K, 10600 kPa, x1 = 0.606	497.9
374.1 K, 17400 kPa, x1 = 0.606	515.3
374.1 K, 24000 kPa, x1 = 0.606	528.5
374.1 K, 31000 kPa, x1 = 0.606	540.7
374.1 K, 37900 kPa, x1 = 0.606	551.3
374.1 K, 38000 kPa, x1 = 0.606	551.7
374.1 K, 44700 kPa, x1 = 0.606	560.9
374.1 K, 51300 kPa, x1 = 0.606	569.2
374.1 K, 58100 kPa, x1 = 0.606	577.4
374.1 K, 63300 kPa, x1 = 0.606	583.4
374.1 K, 66900 kPa, x1 = 0.606	587.4
423.6 K, 16600 kPa, x1 = 0.9003	385.2
423.6 K, 17400 kPa, x1 = 0.9003	389.1
423.6 K, 20800 kPa, x1 = 0.9003	408.2
423.6 K, 24300 kPa, x1 = 0.9003	424
423.6 K, 31200 kPa, x1 = 0.9003	449.1
423.6 K, 37900 kPa, x1 = 0.9003	462.3
423.6 K, 44800 kPa, x1 = 0.9003	479.8
423.6 K, 51600 kPa, x1 = 0.9003	493
423.6 K, 58300 kPa, x1 = 0.9003	504.1
423.6 K, 59400 kPa, x1 = 0.9003	504.8
423.6 K, 63700 kPa, x1 = 0.9003	512.3
423.6 K, 67100 kPa, x1 = 0.9003	516.8
424 K, 10100 kPa, x1 = 0.606	427.5
424 K, 17500 kPa, x1 = 0.606	462.7
424 K, 24300 kPa, x1 = 0.606	484.2
424 K, 30800 kPa, x1 = 0.606	500.6
424 K, 37900 kPa, x1 = 0.606	514.3
424 K, 44700 kPa, x1 = 0.606	523.9
424 K, 51400 kPa, x1 = 0.606	534.9
424 K, 58300 kPa, x1 = 0.606	546
424 K, 63000 kPa, x1 = 0.606	551
424 K, 66900 kPa, x1 = 0.606	556
424.7 K, 4800 kPa, x1 = 0.4466	433.6
424.7 K, 7200 kPa, x1 = 0.4466	448.4
424.7 K, 10700 kPa, x1 = 0.4466	467.6
424.7 K, 17400 kPa, x1 = 0.4466	492.5
424.7 K, 21000 kPa, x1 = 0.4466	502.4
424.7 K, 24300 kPa, x1 = 0.4466	511.5
424.7 K, 31000 kPa, x1 = 0.4466	525
424.7 K, 37800 kPa, x1 = 0.4466	537.6
424.7 K, 44700 kPa, x1 = 0.4466	548.4
424.7 K, 51500 kPa, x1 = 0.4466	558.4
424.7 K, 58300 kPa, x1 = 0.4466	567.4
424.7 K, 63900 kPa, x1 = 0.4466	573.9
424.7 K, 67500 kPa, x1 = 0.4466	578.1
425 K, 1800 kPa, x1 = 0.1414	494.2
425 K, 3700 kPa, x1 = 0.1414	504.2
425 K, 5100 kPa, x1 = 0.1414	510.4
425 K, 7000 kPa, x1 = 0.1414	517.7
425 K, 10400 kPa, x1 = 0.1414	528.7
425 K, 17300 kPa, x1 = 0.1414	546.6
425 K, 17500 kPa, x1 = 0.1414	547.3
425 K, 20600 kPa, x1 = 0.1414	553.9
425 K, 24100 kPa, x1 = 0.1414	561.4
425 K, 27600 kPa, x1 = 0.1414	567.6
425 K, 30900 kPa, x1 = 0.1414	573.2
425 K, 34300 kPa, x1 = 0.1414	578.9
425 K, 37800 kPa, x1 = 0.1414	584.7
425 K, 41100 kPa, x1 = 0.1414	589.1
425 K, 44600 kPa, x1 = 0.1414	594.3
425 K, 51900 kPa, x1 = 0.1414	603.8
425 K, 54400 kPa, x1 = 0.1414	607.1
425 K, 58600 kPa, x1 = 0.1414	612.3
425 K, 61800 kPa, x1 = 0.1414	615.7
425 K, 63600 kPa, x1 = 0.1414	617.9
425 K, 66700 kPa, x1 = 0.1414	621
500.9 K, 12400 kPa, x1 = 0.1414	449.6
500.9 K, 13900 kPa, x1 = 0.1414	457.6
500.9 K, 20800 kPa, x1 = 0.1414	486.8
500.9 K, 24600 kPa, x1 = 0.1414	500.5
500.9 K, 27500 kPa, x1 = 0.1414	508.9
500.9 K, 31000 kPa, x1 = 0.1414	517.7
500.9 K, 37300 kPa, x1 = 0.1414	531.3
500.9 K, 37900 kPa, x1 = 0.1414	531.3
500.9 K, 41400 kPa, x1 = 0.1414	537.5
500.9 K, 44700 kPa, x1 = 0.1414	543.2
500.9 K, 44800 kPa, x1 = 0.1414	543.5
500.9 K, 47100 kPa, x1 = 0.1414	549
500.9 K, 48100 kPa, x1 = 0.1414	549
500.9 K, 51500 kPa, x1 = 0.1414	554.6
500.9 K, 54900 kPa, x1 = 0.1414	559.9
500.9 K, 58400 kPa, x1 = 0.1414	565.4
500.9 K, 61800 kPa, x1 = 0.1414	569.8
500.9 K, 64600 kPa, x1 = 0.1414	574
500.9 K, 67400 kPa, x1 = 0.1414	577.4
501 K, 7900 kPa, x1 = 0.4466	293.3
501 K, 9200 kPa, x1 = 0.606	230.6
501 K, 9700 kPa, x1 = 0.4466	331
501 K, 10100 kPa, x1 = 0.4466	330.6
501 K, 10700 kPa, x1 = 0.606	272.7
501 K, 12400 kPa, x1 = 0.606	306.1
501 K, 12600 kPa, x1 = 0.4466	363.8
501 K, 17200 kPa, x1 = 0.4466	401.7
501 K, 17300 kPa, x1 = 0.606	362
501 K, 20700 kPa, x1 = 0.606	386.4
501 K, 21900 kPa, x1 = 0.4466	428.7
501 K, 22000 kPa, x1 = 0.4466	433.3
501 K, 24000 kPa, x1 = 0.4466	436.5
501 K, 24400 kPa, x1 = 0.4466	440.8
501 K, 25200 kPa, x1 = 0.606	411.3
501 K, 29000 kPa, x1 = 0.606	429
501 K, 31000 kPa, x1 = 0.606	435.7
501 K, 31200 kPa, x1 = 0.4466	463.6
501 K, 34600 kPa, x1 = 0.4466	473.3
501 K, 37900 kPa, x1 = 0.4466	482.2
501 K, 37900 kPa, x1 = 0.606	455.7
501 K, 44800 kPa, x1 = 0.606	473.6
501 K, 45000 kPa, x1 = 0.4466	497.7
501 K, 51400 kPa, x1 = 0.606	485.9
501 K, 51600 kPa, x1 = 0.4466	509.9
501 K, 57900 kPa, x1 = 0.4466	519.9
501 K, 58400 kPa, x1 = 0.606	500
501 K, 63000 kPa, x1 = 0.606	506.6
501 K, 63200 kPa, x1 = 0.4466	527.6
501 K, 67000 kPa, x1 = 0.606	512.8
501 K, 67200 kPa, x1 = 0.4466	533.2
584.6 K, 29000 kPa, x1 = 0.1414	449.8
584.6 K, 31100 kPa, x1 = 0.1414	456.9
584.6 K, 34700 kPa, x1 = 0.1414	468.2
584.6 K, 37900 kPa, x1 = 0.1414	478
584.6 K, 41400 kPa, x1 = 0.1414	487.3
584.6 K, 44800 kPa, x1 = 0.1414	495.6
584.6 K, 45100 kPa, x1 = 0.1414	496.5
584.6 K, 48100 kPa, x1 = 0.1414	503.4
584.6 K, 51700 kPa, x1 = 0.1414	510.7
584.6 K, 55100 kPa, x1 = 0.1414	517.4
584.6 K, 58400 kPa, x1 = 0.1414	523.9
584.6 K, 61800 kPa, x1 = 0.1414	529
584.6 K, 64200 kPa, x1 = 0.1414	532.9
584.6 K, 67400 kPa, x1 = 0.1414	537.5
